Experimental data as given in US9795570B2, “Modulation of macrophage phenotype by emodin” (University of South Carolina, priority 2016, dated 2017).

What was measured:
[1] = tested on: mouse peritoneal macrophages; assay: NO production assay; assay type: cell-based; settings: LPS/IFNγ 24 h, emodin 0-50 μM
Protocol: Macrophages were stimulated with LPS+IFNγ for 24 h with various concentrations of emodin (0-50 μM). The culture media was then collected and the NO content was detected using a Nitrite/Nitrate colormetric kit (Sigma-Aldrich) according to the manufacturer's instructions. The assay was read using a Spectramax M5 microplate reader (Molecular Devices, Sunnyvale, Calif.).

[2] = tested on: mouse peritoneal macrophages; assay: Macrophage migration assay toward MCP1 (transwell); assay type: cell-based; settings: LPS/IFNγ or IL4 stimulated, emodin 50 μM, MCP1 20 ng/ml
Protocol: Macrophages were stimulated with IL4 or LPS+IFNγ for 24 h with or without emodin. The media was then removed and the cells were washed with PBS. The cells were then resuspended in DMEM with scraping and 2×10^5 macrophages were seeded in triplicate into the top chamber of transwell inserts with 8 μm pores (Corning) and place in 24 well plates. Serum free DMEM with 20 ng/ml MCP1 was placed in the bottom of the wells. After 4 h, inserts were fixed in 4% paraformaldehyde for 20 min; the cells in upper inserts were swabbed using cotton buds, and the cells left on the membrane were stained with DAPI (1 μg/ml) for 1 min. The inserts were then cut out, mounted onto slides and imaged under a Nikon Eclipse NI-U fluorescence microscope (Nikon Inc. Melville, N.Y.) at 20× magnification (5 fields/insert). DAPI stained cells were quantified using Nikon NIS-Elements software.

[3] = tested on: T cells co-cultured with TCM treated macrophages; assay: Macrophage - T cell co-culture (activation and proliferation); assay type: cell-based, mouse
Protocol: Peritoneal macrophages were seeded into 10 cm plates and treated with EO771 conditioned medium with or without emodin for 24 h. The cells were then washed with PBS and resuspended. T cells were isolated from the spleens of C57BL/6 mice using EasySep T cell isolation kit (Stem Cell Technologies) according to the manufacturer's instructions. For the proliferation assay, T cells were labeled with CSFE and then mixed with macrophages and CD3/CD28 DYNA beads in a 1:1:1 ratio and added to 12 well plates in triplicate. For the activation assay, the T cells were collected after 24 h and stained with anti-CD3, anti-CD4, and anti-CD69 for 30 min at 4° C. The cells were then analyzed on a BD FACS flow cytometer. For the proliferation assay, T cells were collected after 72 h and stained with anti-CD3 and anti-CD4. The cells were analyzed for CSFE depletion on a Beckman Coulter FC500.

[4] = tested on: Peritoneal macrophages from C57Bl/6 mice; assay: Macrophages stimulated with EO771 tumor conditioned medium (qPCR, histone kit, ChIP); assay type: cell-based, mouse
Protocol: 4T1 cells were obtained from the American Type Culture Collection (ATCC), and EO771 cells were developed from an ER+ spontaneous mammary adenocarcinoma. The cells were maintained in culture according to standard practice. For tumor conditioned medium (TCM) collection, cells were grown until they were 80-90% confluent. Following, the medium was replaced with serum free (SF) DMEM and the cells were cultured for 48 h. The medium was then collected and passed through a 0.45 μm filter (Millipore Corp., Bedford, Mass.). The medium was concentrated 10 times using centrifuge filters with a 3,000 MW cutoff (Millipore). Before use the concentrated conditioned medium was diluted 1:2 with fresh SF DMEM.
Mice were injected with 3 mL of 4% thioglycollate solution. After 3 d, macrophages were collected by peritoneal lavage with PBS. The cells were resuspended in DMEM with 10% FBS and cultured for 2 h. The non-adherent cells were then washed away and the remaining cells were cultured overnight in SF DMEM. The cells were then treated with TCM with or without emodin.
(§1) For qPCR, cells were lysed with Qiazol, and RNA was extracted using Zymo research Direct-zol RNA isolation kit. cDNA was then made from 1 μg of RNA using iScript cDNA Synthesis Kit (Bio-Rad Life Science, Hercules, Calif.). Run conditions were 95° C. for 10 s, 58° C. for 15 s, 70° C. for 15 s. Samples were run in duplicate on a Bio-rad CFX Real Time thermocycler.
Macrophages were fixed in 1% formaldehyde. Excess formaldehyde was quenched with glycine, and the cells were collected in PBS by scraping. The cells were lysed (0.5% IGEPAL, 4 mM HEPES), and the nuclei were resuspended in nuclear lysis buffer (1% SDS, 10 mM EDTA, and 50 mM Tris, pH 8.1). The DNA was sheared by sonication using a Diagnode Bioruptor Pico (Diagenode, Denville, N.J.) for 25 cycles of 30 s on/30 s off. Then 8 μg chromatin was diluted 1:10 (0.01% SDS, 1.1% Triton X-100, 1.2 mM EDTA, 16.7 mM Tris-HCl, pH 8.1, 167 mM NaCl), and 2% of the input was removed from each sample and saved for analysis. Anti-H3K27m3 (Abcam) was added to each sample along with 20 μL of protein A+G magnetic beads (Millipore), and the samples were incubated overnight at 4° C. The beads were washed with low salt, high salt, LiCl, and TE wash buffers sequentially, and the DNA was eluted off the beads with Proteinase K at 62° C. for 2 h (elution buffer: 200 mM NaCl, 1% SDS and 50 mM Tris). The DNA was then analyzed by qPCR.
In order to detect genome wide levels of histone H3 modifications, histones were isolated from macrophages treated with TCM with or without emodin for 24 h using EpiQuik total histone extraction kits (Epigentek, Farmingdale, N.Y.) according to the manufacturer's instructions. Histones (100 ng) were then analyzed using an EpiQuik Histone H3 modification kits (EpiGentek) according to the manufacturer's instructions.

[5] = tested on: mouse peritoneal macrophages; assay: Macrophage memory experiments (re-stimulation after washout); assay type: cell-based
Protocol: For macrophage memory experiments, macrophages were stimulated overnight with IL4, IFNγ, and/or emodin. Following, the cells were washed 3× with PBS and cultured for 2 or 5 days in DMEM with 2% FBS. The media were changed every 2 days. The cells were then re-stimulated with IL4 or LPS for 6 h.
as §1, with “macrophages” for “cells”, “Qiazol” for “Qiazol,”, “microgram” for “μg”, “Science).” for “Science, Hercules, Calif.).”

In the case of `Cc1cc(O)c2c(c1)C(=O)c1cc(O)cc(O)c1C2=O` [emodin], the NO production [1] is reported as “dose dependently inhibited”, the “macrophage migration toward MCP1” value [2] is reported as “significantly reduced” and the “T cell proliferation (CSFE depletion)” value ([3]; TCM and emodin co-treated macrophages, 72 h) is reported as “restored T cell proliferation”. For the same compound, the “suppression of T cell activation (CD69 on CD4 T cells) by TCM treated macrophages” value ([3]; macrophages pre-treated with emodin along with TCM 24 h, co-culture 24 h) was “completely blocked the suppression”, the “TCM-decreased H3K27m3 on the promoters of IRF4, Arg1, and C/EBPβ” value ([4]; ChIP assay) was “reversed the reduction” and the “TCM-increased expression of ICAM1” value ([4]; EO771 TCM, 24 h, qPCR) was “dose dependently blocked”. The “TCM-induced expression of Arg1, C/EBPβ and IRF4” value ([4]; EO771 TCM, 24 h, qPCR) was “dose-dependently inhibited”, the “expression of CSFr1” value ([4]; EO771 TCM, 24 h, qPCR) was “decreased the expression” and the “expression of MMP2 and MMP9” value ([4]; EO771 TCM, 24 h, qPCR) was “inhibited expression”. For the same compound, the “TCM-increased expression of JMJD3” value ([4]; EO771 TCM, emodin 25 μM or 50 μM, 24 h) was “significantly attenuated”, the “global levels of H3K27 methylation” value ([4]; EpiQuik histone modification kit) was “no effects” and the “macrophage response to IL4 after emodin pretreatment alone” value ([5]; 50 μM 24 h, 2-d washout, IL4 6 h) was “significantly reduced”. For the same compound, the “macrophage response to LPS after emodin pretreatment alone” value ([5]; 50 μM 24 h, 2-d washout, LPS 6 h) was “no effect”, the “nuclear STAT1 or STAT6 after 5 days of wash-out” value ([5]; IFNγ or IL4 pretreated cells with or without emodin) was “no significant difference” and the “macrophage response to LPS after IL4 pre-treatment (crossover)” value ([5]; co-pretreatment with emodin) was “did not have any effects”. For the same compound, the “response to secondary IL-4 stimulation after IFNγ pretreatment (crossover)” value ([5]; emodin co-pretreatment) was “decreased the response” and the “response to second LPS or IL-4 treatment (iNOS, Arg1 expression)” value ([5]; first treated with emodin 50 μM with IFNγ or IL4 24 h, 2 d or 5 d washout) was “significantly diminished”.
